The NIST ThermoML archive (doi:10.1021/je300590v)
± gives the expanded uncertainty stated by the source.

Test: xn = mol fraction of the nth substance listed
Conditions: Vibrating tube method

O=O [oxygen] + O=C=O
mass density (273.15 K, 1001 kPa, Gas, x2 = 0.8512): 20 ± 0.2 kg/m3 | mass density (273.15 K, 1001 kPa, Gas, x2 = 0.9558): 21 ± 0.2 kg/m3 | mass density (273.15 K, 2001 kPa, Gas, x2 = 0.8512): 41.9 ± 0.2 kg/m3 | mass density (273.15 K, 2001 kPa, Gas, x2 = 0.9558): 44.5 ± 0.2 kg/m3 | mass density (273.15 K, 3000 kPa, Gas, x2 = 0.8512): 68 ± 0.2 kg/m3 | mass density (273.15 K, 3001 kPa, Gas, x2 = 0.9558): 74.2 ± 0.2 kg/m3 | mass density (273.15 K, 3600 kPa, Gas, x2 = 0.9558): 97.6 ± 0.3 kg/m3 | mass density (273.15 K, 4001 kPa, Gas, x2 = 0.8512): 101 ± 0.3 kg/m3 | mass density (273.15 K, 4400 kPa, Gas, x2 = 0.8512): 121.1 ± 0.3 kg/m3 | mass density (273.15 K, 5101 kPa, Liquid, x2 = 0.9558): 895 ± 1 kg/m3 | mass density (273.15 K, 6000 kPa, Liquid, x2 = 0.9558): 902.5 ± 1.1 kg/m3 | mass density (273.15 K, 7001 kPa, Liquid, x2 = 0.9558): 911.9 ± 1 kg/m3 | mass density (273.15 K, 8001 kPa, Liquid, x2 = 0.9558): 920.4 ± 1.1 kg/m3 | mass density (273.15 K, 9001 kPa, Liquid, x2 = 0.9558): 928.6 ± 1 kg/m3 | mass density (273.15 K, 9013 kPa, Liquid, x2 = 0.8512): 798.3 ± 1.4 kg/m3 | mass density (273.15 K, 10001 kPa, Liquid, x2 = 0.9558): 936 ± 1 kg/m3 | mass density (273.15 K, 10003 kPa, Liquid, x2 = 0.8512): 811.5 ± 1.4 kg/m3 | mass density (273.15 K, 11001 kPa, Liquid, x2 = 0.8512): 825.1 ± 1.2 kg/m3 | mass density (273.15 K, 11001 kPa, Liquid, x2 = 0.9558): 943.1 ± 1 kg/m3 | mass density (273.15 K, 12001 kPa, Liquid, x2 = 0.8512): 837.4 ± 1.1 kg/m3 | mass density (273.15 K, 12001 kPa, Liquid, x2 = 0.9558): 949.6 ± 0.9 kg/m3 | mass density (273.15 K, 13001 kPa, Liquid, x2 = 0.8512): 848.5 ± 1.1 kg/m3 | mass density (273.15 K, 13001 kPa, Liquid, x2 = 0.9558): 955.8 ± 0.9 kg/m3 | mass density (273.15 K, 14000 kPa, Liquid, x2 = 0.8512): 858.7 ± 1 kg/m3 | mass density (273.15 K, 14000 kPa, Liquid, x2 = 0.9558): 961.5 ± 0.9 kg/m3 | mass density (273.15 K, 15002 kPa, Liquid, x2 = 0.8512): 868.2 ± 1 kg/m3 | mass density (273.15 K, 15002 kPa, Liquid, x2 = 0.9558): 967.1 ± 0.9 kg/m3 | mass density (273.15 K, 16000 kPa, Liquid, x2 = 0.8512): 877 ± 1 kg/m3 | mass density (273.15 K, 16001 kPa, Liquid, x2 = 0.9558): 972.4 ± 0.9 kg/m3 | mass density (273.15 K, 17000 kPa, Liquid, x2 = 0.9558): 977.6 ± 0.8 kg/m3 | mass density (273.15 K, 17003 kPa, Liquid, x2 = 0.8512): 885.4 ± 0.9 kg/m3 | mass density (273.15 K, 18000 kPa, Liquid, x2 = 0.8512): 892.9 ± 0.9 kg/m3 | mass density (273.15 K, 18001 kPa, Liquid, x2 = 0.9558): 982.4 ± 0.8 kg/m3 | mass density (273.15 K, 19001 kPa, Liquid, x2 = 0.9558): 987.2 ± 0.8 kg/m3 | mass density (273.15 K, 19039 kPa, Liquid, x2 = 0.8512): 898.3 ± 1 kg/m3 | mass density (273.15 K, 20001 kPa, Liquid, x2 = 0.9558): 991.7 ± 0.8 kg/m3 | mass density (283.15 K, 1000 kPa, Gas, x2 = 0.9558): 21 ± 0.2 kg/m3 | mass density (283.15 K, 1002 kPa, Gas, x2 = 0.8512): 19.2 ± 0.2 kg/m3 | mass density (283.15 K, 2000 kPa, Gas, x2 = 0.9558): 43.2 ± 0.2 kg/m3 | mass density (283.15 K, 2001 kPa, Gas, x2 = 0.8512): 39.7 ± 0.2 kg/m3 | mass density (283.15 K, 3000 kPa, Gas, x2 = 0.8512): 63.3 ± 0.2 kg/m3 | mass density (283.15 K, 3001 kPa, Gas, x2 = 0.9558): 69.8 ± 0.2 kg/m3 | mass density (283.15 K, 4000 kPa, Gas, x2 = 0.9558): 103.9 ± 0.3 kg/m3 | mass density (283.15 K, 4001 kPa, Gas, x2 = 0.8512): 91.1 ± 0.2 kg/m3 | mass density (283.15 K, 4700 kPa, Gas, x2 = 0.9558): 139.4 ± 0.4 kg/m3 | mass density (283.15 K, 5000 kPa, Gas, x2 = 0.8512): 125.7 ± 0.3 kg/m3 | mass density (283.15 K, 6001 kPa, Gas, x2 = 0.8512): 175.6 ± 0.4 kg/m3 | mass density (283.15 K, 6200 kPa, Liquid, x2 = 0.9558): 819 ± 1.2 kg/m3 | mass density (283.15 K, 7000 kPa, Liquid, x2 = 0.9558): 835.3 ± 1.2 kg/m3 | mass density (283.15 K, 8001 kPa, Liquid, x2 = 0.9558): 849.8 ± 1.1 kg/m3 | mass density (283.15 K, 9001 kPa, Liquid, x2 = 0.9558): 862.8 ± 1.2 kg/m3 | mass density (283.15 K, 9610 kPa, Liquid, x2 = 0.8512): 686.6 ± 1.5 kg/m3 | mass density (283.15 K, 10001 kPa, Liquid, x2 = 0.8512): 699.4 ± 1.7 kg/m3 | mass density (283.15 K, 10001 kPa, Liquid, x2 = 0.9558): 873.8 ± 1.1 kg/m3 | mass density (283.15 K, 11001 kPa, Liquid, x2 = 0.8512): 728.8 ± 1.6 kg/m3 | mass density (283.15 K, 11004 kPa, Liquid, x2 = 0.9558): 884.1 ± 1.1 kg/m3 | mass density (283.15 K, 12000 kPa, Liquid, x2 = 0.9558): 893.2 ± 1 kg/m3 | mass density (283.15 K, 12001 kPa, Liquid, x2 = 0.8512): 751.4 ± 1.4 kg/m3 | mass density (283.15 K, 13000 kPa, Liquid, x2 = 0.8512): 770.5 ± 1.3 kg/m3 | mass density (283.15 K, 13000 kPa, Liquid, x2 = 0.9558): 901.9 ± 1 kg/m3 | mass density (283.15 K, 14001 kPa, Liquid, x2 = 0.8512): 786.6 ± 1.2 kg/m3 | mass density (283.15 K, 14002 kPa, Liquid, x2 = 0.9558): 909.9 ± 0.9 kg/m3 | mass density (283.15 K, 15000 kPa, Liquid, x2 = 0.8512): 800 ± 1.1 kg/m3 | mass density (283.15 K, 15000 kPa, Liquid, x2 = 0.9558): 917.3 ± 0.9 kg/m3 | mass density (283.15 K, 16001 kPa, Liquid, x2 = 0.8512): 812.4 ± 1.1 kg/m3 | mass density (283.15 K, 16001 kPa, Liquid, x2 = 0.9558): 924.2 ± 0.9 kg/m3 | mass density (283.15 K, 17000 kPa, Liquid, x2 = 0.9558): 930.8 ± 0.9 kg/m3 | mass density (283.15 K, 17001 kPa, Liquid, x2 = 0.8512): 823.5 ± 1 kg/m3 | mass density (283.15 K, 18001 kPa, Liquid, x2 = 0.9558): 937 ± 0.9 kg/m3 | mass density (283.15 K, 19001 kPa, Liquid, x2 = 0.9558): 943 ± 0.8 kg/m3 | mass density (283.15 K, 20003 kPa, Liquid, x2 = 0.9558): 948.7 ± 0.8 kg/m3 | mass density (293.15 K, 1000 kPa, Gas, x2 = 0.9558): 22.8 ± 0.2 kg/m3 | mass density (293.15 K, 1001 kPa, Gas, x2 = 0.8512): 18.7 ± 0.2 kg/m3 | mass density (293.15 K, 2000 kPa, Gas, x2 = 0.8512): 38.1 ± 0.2 kg/m3 | mass density (293.15 K, 2002 kPa, Gas, x2 = 0.9558): 42.6 ± 0.2 kg/m3 | mass density (293.15 K, 3001 kPa, Gas, x2 = 0.8512): 59.8 ± 0.2 kg/m3 | mass density (293.15 K, 3001 kPa, Gas, x2 = 0.9558): 66.2 ± 0.2 kg/m3 | mass density (293.15 K, 4001 kPa, Gas, x2 = 0.8512): 84.6 ± 0.2 kg/m3 | mass density (293.15 K, 4001 kPa, Gas, x2 = 0.9558): 95.2 ± 0.2 kg/m3 | mass density (293.15 K, 5000 kPa, Gas, x2 = 0.9558): 132.4 ± 0.3 kg/m3 | mass density (293.15 K, 5003 kPa, Gas, x2 = 0.8512): 113.5 ± 0.3 kg/m3 | mass density (293.15 K, 6001 kPa, Gas, x2 = 0.9558): 190.2 ± 0.4 kg/m3 | mass density (293.15 K, 6002 kPa, Gas, x2 = 0.8512): 148.8 ± 0.4 kg/m3 | mass density (293.15 K, 7000 kPa, Gas, x2 = 0.8512): 194.6 ± 0.4 kg/m3 | mass density (293.15 K, 7402 kPa, Liquid, x2 = 0.9558): 718 ± 1.5 kg/m3 | mass density (293.15 K, 8001 kPa, Gas, x2 = 0.8512): 260.9 ± 0.5 kg/m3 | mass density (293.15 K, 8002 kPa, Liquid, x2 = 0.9558): 747 ± 1.3 kg/m3 | mass density (293.15 K, 8600 kPa, Gas, x2 = 0.8512): 316 ± 0.6 kg/m3 | mass density (293.15 K, 9001 kPa, Liquid, x2 = 0.9558): 775.6 ± 1.2 kg/m3 | mass density (293.15 K, 9801 kPa, Fluid (supercritical or subcritical phases), x2 = 0.8512): 460.3 ± 0.9 kg/m3 | mass density (293.15 K, 10001 kPa, Fluid (supercritical or subcritical phases), x2 = 0.8512): 481.5 ± 1 kg/m3 | mass density (293.15 K, 10001 kPa, Liquid, x2 = 0.9558): 797.4 ± 1.4 kg/m3 | mass density (293.15 K, 11001 kPa, Liquid, x2 = 0.8512): 564.7 ± 2.1 kg/m3 | mass density (293.15 K, 11002 kPa, Liquid, x2 = 0.9558): 813.9 ± 1.3 kg/m3 | mass density (293.15 K, 12001 kPa, Liquid, x2 = 0.8512): 617.8 ± 1.8 kg/m3 | mass density (293.15 K, 12002 kPa, Liquid, x2 = 0.9558): 828.6 ± 1.2 kg/m3 | mass density (293.15 K, 13000 kPa, Liquid, x2 = 0.9558): 841.3 ± 1.1 kg/m3 | mass density (293.15 K, 13002 kPa, Liquid, x2 = 0.8512): 657.7 ± 1.6 kg/m3 | mass density (293.15 K, 14000 kPa, Liquid, x2 = 0.9558): 852.2 ± 1.1 kg/m3 | mass density (293.15 K, 14001 kPa, Liquid, x2 = 0.8512): 686.2 ± 1.4 kg/m3 | mass density (293.15 K, 15001 kPa, Liquid, x2 = 0.8512): 710.2 ± 1.3 kg/m3 | mass density (293.15 K, 15001 kPa, Liquid, x2 = 0.9558): 862.4 ± 1 kg/m3 | mass density (293.15 K, 16001 kPa, Liquid, x2 = 0.8512): 730.8 ± 1.2 kg/m3 | mass density (293.15 K, 16001 kPa, Liquid, x2 = 0.9558): 871.6 ± 1 kg/m3 | mass density (293.15 K, 17000 kPa, Liquid, x2 = 0.9558): 880.2 ± 1 kg/m3 | mass density (293.15 K, 17002 kPa, Liquid, x2 = 0.8512): 747.7 ± 1.1 kg/m3 | mass density (293.15 K, 18000 kPa, Liquid, x2 = 0.9558): 888.3 ± 0.9 kg/m3 | mass density (293.15 K, 19001 kPa, Liquid, x2 = 0.9558): 895.9 ± 0.8 kg/m3 | mass density (293.15 K, 20000 kPa, Liquid, x2 = 0.9558): 902.8 ± 0.8 kg/m3
